In patent US11053241B2, “TYK2 inhibitors and uses thereof” (Nimbus Lakshmi, Inc., priority 2018, dated 2021) one finds Kd data, which are given here for 23 molecules.

Structures are written as SMILES.

The target in this test is human TYK2 (JH2domain-pseudokinase) (Homo sapiens (Human), UniProt P29597). Put plainly: TYK2 JH2 Domain Binding Assay (KINOMEscan). To be noted: 11-point 3-fold dilution, top concentration 30,000 nM, duplicate. On the procedure: Binding constants for compounds of the present invention against the JH2 domain were determined by the following protocol for a KINOMEscan® assay (DiscoveRx). A fusion protein of a partial length construct of human TYK2 (JH2domain-pseudokinase) (amino acids G556 to D888 based on reference sequence NP_003322.3) and the DNA binding domain of NFkB was expressed in transiently transfected HEK293 cells. From these HEK 293 cells, extracts were prepared in M-PER extraction buffer (Pierce) in the presence of Protease Inhibitor Cocktail Complete (Roche) and Phosphatase Inhibitor Cocktail Set II (Merck) per manufacturers' instructions. The TYK2(JH2domain-pseudokinase) fusion protein was labeled with a chimeric double-stranded DNA tag containing the NFkB binding site (5′-GGGAATTCCC-3′) fused to an amplicon for qPCR readout, which was added directly to the expression extract (the final concentration of DNA-tag in the binding reaction is 0.1 nM).
human TYK2 (JH2domain-pseudokinase), sequence (P29597 556-888): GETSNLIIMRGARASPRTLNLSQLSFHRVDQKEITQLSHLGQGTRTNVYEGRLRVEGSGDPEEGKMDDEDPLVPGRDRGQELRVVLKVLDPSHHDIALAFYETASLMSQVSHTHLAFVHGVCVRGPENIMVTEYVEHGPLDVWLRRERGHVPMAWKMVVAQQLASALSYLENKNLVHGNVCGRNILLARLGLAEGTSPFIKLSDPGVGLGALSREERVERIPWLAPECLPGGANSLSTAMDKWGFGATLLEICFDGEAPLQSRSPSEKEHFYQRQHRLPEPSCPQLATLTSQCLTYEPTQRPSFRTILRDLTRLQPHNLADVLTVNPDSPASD
Streptavidin-coated magnetic beads (Dynal M280) were treated with a biotinylated small molecule ligand for 30 minutes at room temperature to generate affinity resins for the binding assays. The liganded beads were blocked with excess biotin and washed with blocking buffer (SeaBlock (Pierce), 1% BSA, 0.05% Tween 20, 1 mM DTT) to remove unbound ligand and to reduce nonspecific binding.
The binding reaction was assembled by combining 16 μl of DNA-tagged kinase extract, 3.8 μl liganded affinity beads, and 0.18 μl test compound (PBS/0.05% Tween 20/10 mM DTT/0.1% BSA/2 μg/ml sonicated salmon sperm DNA). Extracts were used directly in binding assays without any enzyme purification steps at a ≥10,000-fold overall stock dilution (final DNA-tagged enzyme concentration <0.1 nM). Extracts were loaded with DNA-tag and diluted into the binding reaction in a two step process. First extracts were diluted 1:100 in 1× binding buffer (PBS/0.05% Tween 20/10 mM DTT/0.1% BSA/2 μg/ml sonicated salmon sperm DNA) containing 10 nM DNA-tag. This dilution was allowed to equilibrate at room temperature for 15 minutes and then subsequently diluted 1:100 in 1× binding buffer. All reactions were performed in polypropylene 384-well plates. Each was a final volume of 0.02 mL. Assays were incubated with shaking for 1 hour at room temperature. Then the beads were pelleted and washed with wash buffer (1×PBS, 0.05% Tween 20) to remove displaced kinase and test compound. The washed based were re-suspended in elution buffer (1×PBS, 0.05% Tween 20, 0.5 μM non-biotinylated affinity ligand) and incubated at room temperature with shaking for 30 minutes. The kinase concentration in the eluates was measured by qPCR. qPCR reactions were assembled by adding 2.5 μL of kinase eluate to 7.5 μL of qPCR master mix containing 0.15 μM amplicon primers and 0.15 μM amplicon probe. The qPCR protocol consisted of a 10 minute hot start at 95° C., followed by 35 cycles of 95° C. for 15 seconds, 60° C. for 1 minute.
Test compounds were prepared as 111× stocks in 100% DMSO. Kd values were determined using an 11-point 3-fold compound dilution series with three DMSO control points. All compounds for Kd measurements are distributed by acoustic transfer (non-contact dispensing) in 100% DMSO. The compounds were then diluted directly into the assays such that the final concentration of DMSO was 0.9%. The Kd values were determined using a compound top concentration of 30,000 nM. Kd measurements were performed in duplicate.
Binding constants (Kds) were calculated with a standard dose-response curve using the Hill equation: […]
The Hill Slope was set to −1. Curves were fitted using a non-linear least square fit with the Levenberg-Marquardt algorithm (Levenberg, K., A method for the solution of certain non-linear problems in least squares, Q. Appl. Math. 2, 164-168 (1944)).
For orientation: Kd means the constant that tells how readily two partners part at equilibrium. Turning to `CNC(=O)c1cnc(NC(=O)C2CC2)c2[nH]c(-c3cccc(-c4cn(C)c(C)n4)c3F)cc12` [Compound I-67], the Kd was < 0.2 nM.

For `CNC(=O)c1cnc(NC(=O)C2CC2)c2[nH]c(-c3ccc(-c4ncc(C)n4C)cc3F)cc12` [Compound I-68, 7-(cyclopropanecarboxamido)-2-(4-(1,5-dimethyl-1H-imidazol-2-yl)-2-fluorophenyl)-N-methyl-1H-pyrrolo[2,3-c]pyridine-4-carboxamide], the Kd is < 0.2 nM.

Consider `CNC(=O)c1cnc(NC(=O)C2CC2)c2[nH]c(-c3ccc(C4COCCO4)cc3OC)cc12` (centres unmarked) [Compound I-61, 2-(4-(1,4-dioxan-2-yl)-2-methoxyphenyl)-7-(cyclopropanecarboxamido)-N-methyl-1H-pyrrolo[2,3-c]pyridine-4-carboxamide], for which the dissociation constant (Kd) is > 10 nM.

On to `CNC(=O)c1cnc(NC(=O)C2CC2)c2[nH]c(-c3ccn(-c4cnn(C)c4)n3)cc12` [Compound I-80, 7-(cyclopropanecarboxamido)-N-methyl-2-(1′-methyl-1′H-[1,4′-bipyrazol]-3-yl)-1H-pyrrolo[2,3-c]pyridine-4-carboxamide], for which the Kd is < 0.2 nM.

Turning to `CCOc1cc(-c2nccn2C)cc(F)c1-c1cc2c(C(=O)NC)cnc(NC(=O)C3CC3)c2[nH]1` [Compound I-78, 7-(cyclopropanecarboxamido)-2-(2-ethoxy-6-fluoro-4-(1-methyl-1H-imidazol-2-yl)phenyl)-N-methyl-1H-pyrrolo[2,3-c]pyridine-4-carboxamide], the Kd is < 0.2 nM.

As for `CNC(=O)c1cnc(NC(=O)C2CC2)c2[nH]c(-c3ccc(-c4cnccn4)cc3F)cc12` [Compound I-66, 7-(cyclopropanecarboxamido)-2-(2-fluoro-4-(pyrazin-2-yl)phenyl)-N-methyl-1H-pyrrolo[2,3-c]pyridine-4-carboxamide], the Kd is < 0.2 nM.

Consider `CNC(=O)c1cnc(NC(=O)C2CC2)c2[nH]c(-c3ccc(-c4nncn4C)cc3F)cc12` [Compound I-62, 7-(cyclopropanecarboxamido)-2-(2-fluoro-4-(4-methyl-4H-1,2,4-triazol-3-yl)phenyl)-N-methyl-1H-pyrrolo[2,3-c]pyridine-4-carboxamide], for which the Kd was < 0.2 nM.

`CNC(=O)c1cnc(NC(=O)C2CC2)c2[nH]c(-c3ccc(C(=O)N4CC(F)(F)C4)cn3)cc12` [Compound I-53, 7-(cyclopropanecarboxamido)-2-(5-(3,3-difluoroazetidine-1-carbonyl)pyridin-2-yl)-N-methyl-1H-pyrrolo[2,3-c]pyridine-4-carboxamide] returned a Kd of 0.2 to 1 nM.

On to `CNC(=O)c1cnc(NC(=O)C2CC2)c2[nH]c(-c3cccc(-n4cnc(C)n4)c3F)cc12` [Compound I-47, 7-(cyclopropanecarboxamido)-2-(2-fluoro-3-(3-methyl-1H-1,2,4-triazol-1-yl)phenyl)-N-methyl-1H-pyrrolo[2,3-c]pyridine-4-carboxamide], for which the Kd is < 0.2 nM.

The molecule `CNC(=O)c1cnc(NC(=O)C2CC2)c2[nH]c(-c3cccc(-c4cnn(C)c4)c3C#N)cc12` [Compound I-45, 2-(2-cyano-3-(1-methyl-1H-pyrazol-4-yl)phenyl)-7-(cyclopropane-carboxamido)-N-methyl-1H-pyrrolo[2,3-c]pyridine-4-carboxamide] displayed a Kd of 0.2 to 1 nM.

For `CNC(=O)c1cnc(NC(=O)C2CC2)c2[nH]c(-c3cccn(C4CCCOC4)c3=O)cc12` (centres unmarked) [Compound I-43, 7-(cyclopropanecarboxamido)-N-methyl-2-(2-oxo-1-(tetrahydro-2H-pyran-3-yl)-1,2-dihydropyridin-3-yl)-1H-pyrrolo[2,3-c]pyridine-4-carboxamide], the Kd fell in the range of 0.2 to 1 nM.

`CNC(=O)c1cnc(NC(=O)C2CC2)c2[nH]c(-c3cccc(-c4nnn(C)n4)c3OC)cc12` [Compound I-59, 7-(cyclopropanecarboxamido)-2-(2-methoxy-3-(2-methyl-2H-tetrazol-5-yl)phenyl)-N-methyl-1H-pyrrolo[2,3-c]pyridine-4-carboxamide]: the Kd is 0.2 to 1 nM.

For the molecule `CNC(=O)c1cnc(NC(=O)C2CC2)c2[nH]c(-c3cccc(-c4nc(C)cn4C)n3)cc12` [Compound I-49, 7-(cyclopropanecarboxamido)-2-(6-(1,4-dimethyl-1H-imidazol-2-yl)pyridin-2-yl)-N-methyl-1H-pyrrolo[2,3-c]pyridine-4-carboxamide], the Kd was < 0.2 nM.

For the molecule `CNC(=O)c1cnc(NC(=O)C2CC2)c2[nH]c(-c3cccc(C4=NC(C)(C)CO4)c3F)cc12` [Compound I-87, 7-(cyclopropanecarboxamido)-2-(3-(4,4-dimethyl-4,5-dihydrooxazol-2-yl)-2-fluorophenyl)-N-methyl-1H-pyrrolo[2,3-c]pyridine-4-carboxamide], the Kd was < 0.2 nM.

On to `CNC(=O)c1cnc(NC(=O)C2CC2)c2[nH]c(-c3ccc(-c4nccs4)cc3OC)cc12` [Compound I-60, 7-(cyclopropanecarboxamido)-2-(2-methoxy-4-(thiazol-2-yl)phenyl)-N-methyl-1H-pyrrolo[2,3-c]pyridine-4-carboxamide], for which the Kd was < 0.2 nM.

Turning to `CNC(=O)c1cnc(NC(=O)C2CC2)c2[nH]c(-c3cccc(-c4nnn(C)n4)c3)cc12` [Compound I-50, 7-(cyclopropanecarboxamido)-N-methyl-2-(3-(2-methyl-2H-tetrazol-5-yl)phenyl)-1H-pyrrolo[2,3-c]pyridine-4-carboxamide], the Kd lay within 0.2 to 1 nM.

`CNC(=O)c1cnc(NC(=O)C2CC2)c2[nH]c(-c3cccc(-c4cn5c(n4)CCC5)c3F)cc12` [Compound I-69, 7-(cyclopropanecarboxamido)-2-(3-(6,7-dihydro-5H-pyrrolo[1,2-a]imidazol-2-yl)-2-fluorophenyl)-N-methyl-1H-pyrrolo[2,3-c]pyridine-4-carboxamide]: the Kd was < 0.2 nM.

As to `CNC(=O)c1cnc(NC(=O)C2CC2)c2[nH]c(-c3ncc(C(=O)N(C)C)cc3F)cc12` [Compound I-51, 7-(cyclopropanecarboxamido)-2-(5-(dimethylcarbamoyl)-3-fluoropyridin-2-yl)-N-methyl-1H-pyrrolo[2,3-c]pyridine-4-carboxamide], the Kd was 0.2 to 1 nM.

As to `CNC(=O)c1cnc(NC(=O)C2CC2)c2[nH]c(-c3ccc(C4COCCO4)cc3OC)cc12` (centres unmarked) [Compound I-89, 2-(4-(1,4-dioxan-2-yl)-2-methoxyphenyl)-7-(cyclopropanecarboxamido)-N-methyl-1H-pyrrolo[2,3-c]pyridine-4-carboxamide], the Kd lay within 0.2 to 1 nM.

For `CNC(=O)c1cnc(NC(=O)C2CC2)c2[nH]c(-c3ccccc3N3CCC(O)CC3)cc12` [Compound I-46, 7-(cyclopropanecarboxamido)-2-(2-(4-hydroxypiperidin-1-yl)phenyl)-N-methyl-1H-pyrrolo[2,3-c]pyridine-4-carboxamide], the Kd was 0.2 to 1 nM.

The molecule `CNC(=O)c1cnc(NC(=O)C2CC2)c2[nH]c(-c3ccc(-c4nccn4C)cc3OC3CC3)cc12` [Compound I-57, 7-(cyclopropanecarboxamido)-2-(2-cyclopropoxy-4-(1-methyl-1H-imidazol-2-yl)phenyl)-N-methyl-11H-pyrrolo[2,3-c]pyridine-4-carboxamide] gave a Kd of 1 to 10 nM.

For the molecule `CNC(=O)c1cnc(NC(=O)C2CC2)c2[nH]c(-c3ccc(-c4ccn(C)n4)cc3F)cc12` [Compound I-101], the Kd was in the range of 0.2 to 1 nM.

`CNC(=O)c1cnc(NC(=O)C2CC2)c2[nH]c(-c3cccc(OC4CCOCC4)c3F)cc12` [Compound I-85, 7-(cyclopropanecarboxamido)-2-(2-fluoro-3-((tetrahydro-2H-pyran-4-yl)oxy)phenyl)-N-methyl-1H-pyrrolo[2,3-c]pyridine-4-carboxamide] came in with a Kd of 0.2 to 1 nM.
